Source: patent US20240150325A1, “NOVEL COMPOUND AS PROTEIN KINASE INHIBITORS” (LG CHEM, LTD., priority 2021, published 2024)

Experiments:
RON = RON (Homo sapiens, UniProt Q04912); test: Evaluation of inhibitory activity to RON; assay type: biochemical
From the text: (§1) Experimental Example 1. Evaluation of Inhibitory Activity to RON and MET

MET = MET (Homo sapiens, UniProt P08581); test: Evaluation of inhibitory activity to MET; assay type: biochemical
From the text: as §1

Chain of MET (P08581 25-1390): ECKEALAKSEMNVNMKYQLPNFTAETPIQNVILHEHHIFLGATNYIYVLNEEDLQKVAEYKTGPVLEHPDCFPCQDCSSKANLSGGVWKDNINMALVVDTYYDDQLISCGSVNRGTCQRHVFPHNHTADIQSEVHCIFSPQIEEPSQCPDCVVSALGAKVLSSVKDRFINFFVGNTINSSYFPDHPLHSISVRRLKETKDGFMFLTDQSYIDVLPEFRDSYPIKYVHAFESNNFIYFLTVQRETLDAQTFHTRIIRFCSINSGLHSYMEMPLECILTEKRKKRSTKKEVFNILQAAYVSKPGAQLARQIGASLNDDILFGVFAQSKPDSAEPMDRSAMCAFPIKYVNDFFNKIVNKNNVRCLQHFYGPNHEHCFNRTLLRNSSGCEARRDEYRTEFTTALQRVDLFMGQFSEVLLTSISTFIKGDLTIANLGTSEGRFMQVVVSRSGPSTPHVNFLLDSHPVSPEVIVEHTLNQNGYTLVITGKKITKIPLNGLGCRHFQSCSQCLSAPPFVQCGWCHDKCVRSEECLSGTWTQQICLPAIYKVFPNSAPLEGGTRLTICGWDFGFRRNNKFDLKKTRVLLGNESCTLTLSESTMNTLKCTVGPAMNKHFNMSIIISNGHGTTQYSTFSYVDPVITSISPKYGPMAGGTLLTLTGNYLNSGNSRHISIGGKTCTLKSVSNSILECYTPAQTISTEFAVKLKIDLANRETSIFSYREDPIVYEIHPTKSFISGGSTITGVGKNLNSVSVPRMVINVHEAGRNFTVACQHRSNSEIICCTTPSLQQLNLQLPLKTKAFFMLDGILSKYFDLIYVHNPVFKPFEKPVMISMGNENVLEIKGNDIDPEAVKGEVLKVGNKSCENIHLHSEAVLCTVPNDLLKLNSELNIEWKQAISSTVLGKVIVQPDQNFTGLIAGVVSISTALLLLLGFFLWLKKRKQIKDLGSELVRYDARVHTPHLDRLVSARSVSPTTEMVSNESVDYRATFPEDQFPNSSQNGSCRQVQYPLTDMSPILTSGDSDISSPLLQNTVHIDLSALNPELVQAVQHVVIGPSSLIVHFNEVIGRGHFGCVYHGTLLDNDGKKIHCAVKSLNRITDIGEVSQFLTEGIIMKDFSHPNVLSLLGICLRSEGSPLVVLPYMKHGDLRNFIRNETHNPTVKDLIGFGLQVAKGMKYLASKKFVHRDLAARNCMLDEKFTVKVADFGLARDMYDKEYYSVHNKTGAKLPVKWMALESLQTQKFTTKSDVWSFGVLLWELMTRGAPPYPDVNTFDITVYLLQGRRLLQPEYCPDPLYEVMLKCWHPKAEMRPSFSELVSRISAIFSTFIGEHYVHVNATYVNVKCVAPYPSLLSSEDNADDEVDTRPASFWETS
Chain of RON (Q04912 25-1400): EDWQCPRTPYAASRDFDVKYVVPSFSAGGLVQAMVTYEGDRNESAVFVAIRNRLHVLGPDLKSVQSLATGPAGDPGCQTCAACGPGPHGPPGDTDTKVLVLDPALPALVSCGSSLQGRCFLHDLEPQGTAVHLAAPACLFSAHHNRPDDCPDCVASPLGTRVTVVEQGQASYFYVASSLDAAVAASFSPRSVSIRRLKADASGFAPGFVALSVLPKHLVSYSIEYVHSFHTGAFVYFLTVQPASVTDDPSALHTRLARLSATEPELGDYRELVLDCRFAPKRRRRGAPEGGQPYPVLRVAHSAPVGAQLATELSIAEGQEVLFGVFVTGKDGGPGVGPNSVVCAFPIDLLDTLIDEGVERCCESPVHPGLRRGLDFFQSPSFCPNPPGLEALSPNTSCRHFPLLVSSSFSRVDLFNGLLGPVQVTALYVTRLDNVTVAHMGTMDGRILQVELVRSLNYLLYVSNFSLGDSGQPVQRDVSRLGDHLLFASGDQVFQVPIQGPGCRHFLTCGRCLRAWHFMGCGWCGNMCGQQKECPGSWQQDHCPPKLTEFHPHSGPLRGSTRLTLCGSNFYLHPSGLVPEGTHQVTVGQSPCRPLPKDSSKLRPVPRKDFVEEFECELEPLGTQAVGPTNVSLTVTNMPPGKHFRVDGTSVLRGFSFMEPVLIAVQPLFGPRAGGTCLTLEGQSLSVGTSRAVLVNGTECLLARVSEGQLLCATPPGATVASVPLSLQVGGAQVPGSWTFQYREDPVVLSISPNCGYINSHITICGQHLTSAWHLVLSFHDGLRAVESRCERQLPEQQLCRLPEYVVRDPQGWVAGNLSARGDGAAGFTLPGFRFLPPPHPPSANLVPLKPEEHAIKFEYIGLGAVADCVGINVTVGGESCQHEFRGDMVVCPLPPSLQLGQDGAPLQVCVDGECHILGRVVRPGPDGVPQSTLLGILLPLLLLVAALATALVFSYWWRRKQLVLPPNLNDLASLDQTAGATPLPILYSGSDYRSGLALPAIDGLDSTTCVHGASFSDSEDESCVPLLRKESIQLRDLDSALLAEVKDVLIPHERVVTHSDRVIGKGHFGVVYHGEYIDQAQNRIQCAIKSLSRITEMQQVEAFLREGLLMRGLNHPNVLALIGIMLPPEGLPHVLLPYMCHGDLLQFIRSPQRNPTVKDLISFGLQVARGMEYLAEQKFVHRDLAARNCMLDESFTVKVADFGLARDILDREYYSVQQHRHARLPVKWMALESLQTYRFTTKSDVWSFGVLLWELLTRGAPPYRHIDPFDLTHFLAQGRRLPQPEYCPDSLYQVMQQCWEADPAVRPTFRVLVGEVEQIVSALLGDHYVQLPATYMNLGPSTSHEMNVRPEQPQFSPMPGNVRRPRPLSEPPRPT

IC50 (RON): 876 nM | IC50 (MET): 115 nM
Structure (SMILES): Cc1c(C(=O)Nc2ccc(Oc3ccc(O)c(-c4ccnc(N)n4)c3)c(F)c2)c(=O)n(-c2ccccc2)n1CC(C)(C)O [Example 52, N-(4-(3-(2-aminopyrimidin-4-yl)-4-hydroxyphenoxy)-3-fluorophenyl)-1-(2-hydroxy-2-methylpropyl)-5-methyl-3-oxo-2-phenyl-2,3-dihydro-1H-pyrazol-4-carboxamide]
